Data taken from patent US12480155B2, “Nicking enzymes” (LumiraDx UK Ltd., priority 2019, dated 2025).
Read-outs that look alike come from different tables or passages of the source.

Key:
[1] = tested on: STAR reaction (Nt.BstNBI nicking endonuclease, Bst X DNA polymerase; Chlamydia trachomatis cryptic plasmid target)
Experimental: The STAR mixture contained two primers, polymerase, and nicking enzyme (referenced above). Reactions were performed in a final volume of 25 μl, including 1.0 μM of the forward primer, 0.5 μM of the reverse primer, 0.25 μM molecular beacon, 10 μl STAR Master Mix and 5 μl DNA sample. STAR master mix contained the following reagents; 12 mM MgSO4, 90 mM Tris-HCl (pH 8.5), 300 μM each dNTPs, 20 mM (NH4)2SO4, 15 mM Na2SO4, 2 mM. DTT, 0.01% Triton X-100, 15 U nicking endonuclease, 60 U polymerase. […] The temperature of the reactions was controlled, with a relatively high initiation temperature followed by a gradual drop over time, for optimal STAR activity. The initiation phase, primarily involving polymerase activity, was at the elevated temperature of 60° C. for 15 seconds. […] Amplification and STAR product detection were performed with the Agilent Mx3005P qPCR apparatus (Agilent).

Bst X DNA polymerase = settings: 15 mM Rb2SO4 vs no added rubidium; STAR temperature profile; six replicates
Description: The NEF has a 5′ fluorophore, POQ has a 3′ quenching moiety that absorbs the photons released by the 5′ template oligo fluorophore. The PO serves as the initiation site for a strand displacement polymerase to extend and displace the quenching oligo allowing for fluorescence to be generated due to the quenching oligo no longer being in proximity to the template oligo.
The basic PAA mixture contains a template oligo (NEF) with a 5′-FAM modification, a priming oligo (PO) which anneals to the template's 3-end, a quenching oligo (POQ) with a 3′-BHQ1 modification which anneals to the template's 5′-end, and a polymerase (referenced above). The reactions were performed in a final volume of 25 μl, including 0.2 μM NEF, 0.3 μM PO, 0.7 μM POQ, and 1×PAA Master Mix. At a 1× concentration, the PAA master mix contained the following reagents; 12.5 mM MgSO4, 90 mM Tris-HCl (pH 8.5), 300 μM each dNTPs, 15 mM NH4CH3CO2, 15 mM Na2SO4, 5 mM DTT, 0.2 mg/ml BSA, 0.02% Triton X-100, 15 mM Rb2SO4, 10 mM L-Threonine, and 0.03 U/μl polymerase. […] The PAA was performed with the Agilent Mx3005P qPCR apparatus (Agilent). […] Each reaction assessed amplification kinetics, enzyme performance, and signal fluorescence.

[2] = tested on: Nt.BstNBI nicking endonuclease; settings: 15 mM Rb2SO4 vs no rubidium; STAR temperature profile; six replicates
Experimental: The template oligo has a nicking site for nicking endonuclease activity and downstream a 3′ quencher. The priming oligo has the complementary nicking site sequence and a 5′ fluorophore. When in solution the two form a complex that completes a nicking binding site allowing for the nicking endonuclease to cut. The oligonucleotide quencher 5′ of the nick site, following a nick by a nicking endonuclease, now has a low melting temperature. Because the reaction is performed above this melting temperature, the shortened fragment containing the quencher is released from the complex generating fluorescence.
The basic NAA mixture contained the template oligo (NEQ) with a 3′ modification, and the priming oligo (POF) with a 5′-FAM modification which anneals to the template, and a nicking endonuclease (referenced above). The reactions were performed in a final volume of 25 μl, including 1.3 μM NEQ, 1.6 μM POE, and 1×NAA Master Mix. At a 1× concentration, the NAA master mix contained the following reagents; 12.5 mM MgSO4, 90 mM Tris-HCl (pH 8.5), 15 mM NH4CH3CO2, 15 mM Na2SO4, 5 mM DTT, 0.2 mg/ml BSA, 0.02% Triton X-100, 15 mM Rb2SO4, 10 mM L-Threonine, and 0.008 U/μl nicking endonuclease. […] The NAA was performed with the Agilent Mx3005P qPCR apparatus (Agilent). […] Each reaction assessed amplification kinetics, enzyme performance, and signal fluorescence.

[3] = tested on: Nb.BsmI nicking endonuclease; settings: 20 mM Rb2SO4 vs control; STAR temperature profile; average of six replicates
Description: The modified NAA was run with and without rubidium using the following conditions.
The Nb.BsmI recognition sequence is GAATG_CN. (The underscore indicates the nick site). The oligonucleotide contains self-complementary sequences and forms a molecular beacon-like probe in solution. The probe has a nicking site for nicking endonuclease activity and a 3′ quencher. Upstream of the nicking binding site is a 5′ fluorophore. When in solution a complex is formed that completes a nicking binding site allowing for the nicking endonuclease to nick. Nb.BsmI is a bottom cutter and therefore will cut on the opposite strand of the nicking binding site. The oligonucleotide quencher 3′ of the nick site, following a nick by a nicking endonuclease, now has a low melting temperature. Because the reaction is performed above this melting temperature, the shortened fragment containing the quencher is released from the complex, generating fluorescence.
The basic NAA mixture contained the probe oligo (DLPFQ) with a 5′-FAM modification and a 3′-BHQ1 modification which folds on itself, and a nicking endonuclease (referenced above). […] The reactions were performed in a final volume of 25 μl, including different concentrations of DLPFQ depending on the nicking enzyme used, and 1×NAA Master Mix. […] Each reaction assessed kinetics, enzyme performance, and signal fluorescence.

[4] = tested on: isothermal amplification reaction (nicking endonuclease, polymerase; primers of Example 1)
Experimental: The basic mixture contains two primers, polymerase, and nicking enzyme (referenced above). […] The reactions were performed in a final volume of 25 μM, including 1.0 μM of the forward primer, 0.5 μM of the reverse primer, 0.25 μM molecular beacon, 10 μM Master Mix and 5 μl DNA sample. The master mix contained the following reagents; 12.5 mM MgSO4, 90 mM Tris-HCl (pH 8.5), 300 μM each dNTPs, 40 mM NH4OAc, 15 mM Na2SO4, 2 mM DTT, 0.01% Triton X-100, 15U nicking endonuclease, 60 U polymerase. […] Amplification and product detection were performed with the Agilent Mx3005P qPCR apparatus (Agilent).

[5] = tested on: Nb.BbvCI nicking endonuclease; assay: Nicking Enzyme Activity Assay (NAA) with Nb.BbvCI under isothermal condition; assay type: biochemical; settings: 40 ml RbCl (so in the source), 1x CutSmart Buffer, isothermal 50 °C; four replicates vs control
Experimental: The assay comprises use of the following oligonucleotide probe (DLPFQ) (SEQ ID NO: 10 5′/56-FAM/[…].[…]/3BHQ_1/-3′). The oligonucleotide forms a molecular beacon-like probe in solution. […] Upstream of the nicking enzyme binding site is a 5′ fluorophore.
The reactions are run using an isothermal temperature profile, 50° C. […] Each reaction assessed kinetics, enzyme performance, and signal fluorescence.

SMILES: CC(=O)[O-].CC(=O)[O-].CC(=O)[O-].[Sc+3] [scandium acetate]
- effect on STAR (ion replacement) ([1]; all concentrations): fully inhibited the reaction

SMILES: CC(=O)[O-].[K+] [potassium acetate]
- effect on STAR (ion replacement) ([1]; salts replaced in buffer, various concentrations): neither of which improved STAR

SMILES: O=S(=O)([O-])[O-].[Rb+].[Rb+] [rubidium sulfate]
- grouping of replicate sample results in STAR ([1]; 50 mM rubidium sulfate vs control group): more tightly grouped than with the control group
- effect on STAR amplification ([1]; 50 mM rubidium sulfate vs no rubidium control): detrimental to amplification, slowing the reaction
- effect on STAR reactions ([1]; 10 to 20 mM rubidium sulphate vs no rubidium control, 100 copies target): improved STAR reactions
- polymerase activity (fluorescence) (Bst X DNA polymerase): does not change the activity of the polymerase in any significant manner
- nicking enzyme activity (fluorescence) [2]: significantly increased the activity of the nicking enzyme
- nicking enzyme activity (fluorescence) [3]: increases the activity of this other nicking endonuclease
- performance of 10 copy isothermal reaction ([4]; 15 mM of rubidium sulfate (so in the source), compared with 100 copy reaction without rubidium sulfate): made the 10 copy reaction perform similar to the 100 copy reaction without rubidium sulfate
- effect on isothermal amplification reaction ([4]; 20 mM rubidium sulfate vs without, 100 and 10 copies template, average of 4 replicates): improves the isothermal reaction
- tightness of replicates in isothermal amplification ([4]; with vs without rubidium, data not shown): tighter than without rubidium

SMILES: CC(=O)[O-].CC(=O)[O-].[Sr+2] [strontium acetate]
- effect on STAR (ion replacement) ([1]; 10 mM): possibly slightly slowed the reaction
- effect on STAR (ion replacement) ([1]; 20 and 50 mM): fully inhibited the reaction

SMILES: [Cl-].[Rb+] [rubidium chloride]
- nicking enzyme activity (fluorescence) [5]: increases the activity of Nb.BbvCI nicking endonuclease
